Measured values: publication PMC8496261 (RSC Chemical Biology, 2021)
Numbered stars: 1 amine (or outer) side, 2 acyl side, 3 side chain; on linkers, the order of the positions; unused ones are H or OH. Bridge positions count the residues as written; N and C are the ends. Peptide text beside a SMILES is read from it. * marks the point of attachment. FITC = O=C1OC2(c3ccc(O)cc3Oc3cc(O)ccc32)c2ccc(NC(=S)*)cc21; X1 = Cc1c(C[*:1])n2c(C[*:2])c(C)c(=O)n2c1=O; βAla = NCCC(=O)O

How the values were obtained:
PCNA (hPCNA) = PCNA (hPCNA) (Homo sapiens, UniProt P12004); assay: SPR steady state binding affinity for PCNA; conditions: for PCNA binding affinity, in words: SPR, 2 compared with peptide 1, 9 compared with peptide 7
[1] = tested on: MDA-MB-468 breast cancer cells (mKate nuclear label); assay: Cell uptake assay imaged by confocal fluorescence microscopy; type: cell-based, human; conditions: MDA-MB-468 cells, 10 μM peptide, 24 h, fixed

PCNA (hPCNA), sequence (P12004 whole entry): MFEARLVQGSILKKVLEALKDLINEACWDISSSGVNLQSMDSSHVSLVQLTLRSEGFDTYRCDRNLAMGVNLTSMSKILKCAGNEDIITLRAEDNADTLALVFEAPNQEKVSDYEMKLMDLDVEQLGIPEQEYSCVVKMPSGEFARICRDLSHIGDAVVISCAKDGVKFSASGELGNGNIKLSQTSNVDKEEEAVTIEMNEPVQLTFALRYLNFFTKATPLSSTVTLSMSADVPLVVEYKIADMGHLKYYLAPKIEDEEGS

Q: For `CSCC[C@H](NC(=O)[C@H](CO)NC(=O)[C@@H](NC(=O)[C@H](CCC(N)=O)NC(=O)[C@@H](N)CCCNC(=N)N)[C@@H](C)O)C(=O)N[C@H](C(=O)N[C@@H](CC(=O)O)C(=O)N[C@@H](Cc1ccccc1)C(=O)N[C@@H](Cc1ccc(O)cc1)C(=O)N[C@@H](Cc1c[nH]cn1)C(=O)N[C@@H](CO)C(=O)N[C@@H](CCCCN)C(N)=O)[C@@H](C)O` [Peptide 1] (H-RQTSMTDFYHSK-NH2), which Kd (PCNA (hPCNA); SEM) is on record?
A: 0.102 ± 0.005 µM

Q: `CSCC[C@@H]1NC(=O)[C@H](CO)NC(=O)[C@@H](NC(=O)[C@H](CCC(N)=O)NC(=O)[C@H](CCCNC(=N)N)NC(=O)CCNC(=S)Nc2ccc3c(c2)C(=O)OC32c3ccc(O)cc3Oc3cc(O)ccc32)CSCc2c(C)c(=O)n3c(=O)c(C)c(n23)CSC[C@@H](C(=O)N[C@@H](Cc2ccccc2)C(=O)N[C@@H](Cc2ccc(O)cc2)C(=O)N[C@@H](Cc2c[nH]cn2)C(=O)N[C@@H](CO)C(=O)N[C@@H](CCCCN)C(N)=O)NC(=O)[C@H]([C@@H](C)O)NC1=O` [Peptide 9] ({FITC-βAla}-RQCSMTCFYHSK-NH2; linker 3-7 via X1) was tested. Which “intracellular distribution of peptide fluorescence” value [1] did it give?
A: both blue and green fluorescence present throughout the cell cytoplasm

Q: What about the “PCNA binding affinity, in words” value (PCNA (hPCNA)) of the same compound?
A: dramatically decreases the binding affinity

Q: Which “PCNA binding affinity, in words” value (PCNA (hPCNA)) does the source give for Ac-RQCSMTCFYHSK-NH2 [Peptide 2] here?
A: significantly reduced PCNA affinity
